Source: US9249159B2, “Composition for treating hepatitis C virus, regulating phosphorylation of replicase” (Industry-Academic Cooperation Foundation, Yonsei University, priority 2011, dated 2016)

Legend:
[1] = tested on: PDK1; experiment: Steady state level of PDK1 in Huh7 cell by immunoblotting; format: cell-based; conditions: increasing concentration, 48 hours
Source text: (§1) Total cell lysates from cells treated with inhibitors or IFN-α by using antibodies to PDK1, p-PDK1 (S241), PRK2, and p-PRK2 (T816) (products of Cell Signaling Technology, Inc., Beverly, Mass., USA) was used for immunoblotting. In order to detect PKC isoforms α, β, and γ, a polyclonal antibody to a consensus sequence present in three PKC (protein kinase C) isoforms α, β and γ (anti-pan-PKC; Zymed Laboratories, San Francisco, Calif., USA) was used. An anti-α-tubulin antibody (Oncogene Research Products, Cambridge, Mass., USA) was carried out in immunoblotting for checking whether or not the same amount of protein was loaded.
In order to test whether or not PDK1 in Huh7 as an HCC cell line was destabilized by inhibition of Hsp90, 17-DMAG as a second-generation geldanamycin derivative known as being safer than geldanamycin or its derivative 17-AAG and effective for oral delivery was used (FIG. 8A). The Huh7 cell was treated for 48 hours along with an increase in concentration of 17-DMAG, and a steady state level of PDK1 was evaluated by immunoblotting.

[2] = tested on: PDK1; experiment: PDK1 level and activation in R-1 cell by immunoblotting; format: cell-based; conditions: 10 or 50 nM, 72 hours
Source text: as §1
Therefore, anti-HCV activity of 17-DMAG in the R-1 cell was tested at a level lower than 50 nM. To do so, the R-1 cell was treated with a vehicle (0.25% DMSO) or 17-DMAG for 72 hours and the cell lysates (50 μg) and antibodies specific to the proteins were immunoblotted to measure levels of the proteins. An anti-α-tubulin antibody (lower end panel) was used as an internal loading control. The levels of the proteins were measured by densitometric analysis of immunoblot, and the phosphorylated amounts and relative intensities calculated with respect to PDK1 and PDK2 were converted with respect to α-tubulin signals and then quantitated. As a result of three independent experiments showing similar results, a representative blot picture was illustrated. […]

[3] = tested on: HCV IRES; experiment: Dual luciferase reporter assay of translation via HCV IRES in Huh7 cell; format: cell-based, hepatitis C virus; conditions: various concentrations, 72 hours
Source text: The dual luciferase expression vector allowing cap-dependent translation of a Renilla (RLuc) reporter and HCV internal ribosome entry site (IRES)-mediated luciferase translation of a firefly luciferase (FLuc) reporter was constructed by inserting the HCV IRES and partial core protein-coding region fused to the cDNA for FLuc downstream of the Renilla luciferase reporter gene as described previously. Huh7 cells were transiently transfected with the bicistronic dual luciferase vector using Fugene HD (Roche Applied Science, Indianapolis, Ind., USA). RLuc and FLuc activities in cell lysates were quantified using the Dual-Glo luciferase assay kit (Promega) on the GloMax-Multi detection system (Promega).
Then, in order to observe an effect of 17-DMAG on translation via HCV IRES, a dual reporter assay was carried out. The Huh7 cell was transfected by a dual reporter assay plasmid (FIG. 11B, upper diagram), and treated with 17-DMAG at various concentrations for 72 hours. […] A level of the Firefly luciferase […] and a Renilla luciferase […] was measured by dual luciferase assay and expressed in % with respect to a control treated with DMSO (first bar). […]

[4] = tested on: Huh7 cells; experiment: Cell cycle analysis of Huh7 cells by flow cytometer; format: cell-based, human; conditions: 48 hours, 17-DMAG 500 nM
Experimental: The Huh7 cell treated with 17-DMAG or HA1077 for 48 hours was collected and washed with PBS. The cells were fixed with chilled ethanol for 30 min, treated with RNase A (100 μg/ml) for 5 min at room temperature, stained with 50 μg/mL propidium iodide (PI, Sigma-Aldrich) for 30 min at 37° C., and analyzed using a FACS Calibur flow cytometer (Becton Dickinson, San Jose, Calif., USA).
Then, a cell cycle assay was carried out by using a flow cytometer. Huh7 cells were treated with DMSO (0.25%) or 500 nM of 17-DMAG for 48 hours, and a cell cycle thereof was analyzed by using a flow cytometer to show the percentage of cells in G1, S, and G2/M phases. LY294002 as a PI3K inhibitor was used as a positive control.

Compound: CO[C@H]1/C=C\C=C(/C)C(=O)NC2=CC(=O)C(NCCN(C)C)=C(C[C@@H](C)C[C@H](OC)[C@H](O)[C@@H](C)/C=C(\C)[C@@H]1OC(N)=O)C2=O [17-DMAG, 17-(dimethylaminoethylamino)-17-demethoxygeldanamycin]
- PDK1 level [1]: gradually and significantly decreased
- level of PDK1 [2]: decreased
- effect on translation via HCV IRES [3]: did not have an effect
- cell cycle (G1, S, G2/M phases) [4]: not significantly changed
